Among the test systems are NCI-H460; RPMI-8226; SW-620; OVCAR-5; SN12C; HOP-62; Malme-3M; SF-268; NCI-H522; KM12; HCT-116; T47D; M14; DU-145; U-251; MDA-MB-435; BT-549; HT-29; NCI-H226; COLO 205.
Holding throughout (assay): DTP human tumour cell line panel, 48 h

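Compound exposure: 48 hours, 5 concentrations, 96-well plates. Abbreviation: GI50, concentration required for 50% inhibition of growth.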 Activity calls are given as the source filed them. Cut-off read from the data, not from the text of the source: active = GI50 up to about 1.1 µM and inactive = higher. Bounds are passed on as bounds.

The term GI50 denotes the concentration at which growth is held to half of that of the control. In the case of `O=C(NCc1cccc2ccccc12)N/N=C\c1ccc(Cl)cc1`, the GI50 in the assay on NCI-H460 was 67 µM (inactive); in the assay with RPMI-8226 it was 77.1 µM (inactive); with SW-620, 88.3 µM (inactive); in the assay on OVCAR-5 it was > 100 µM (inactive); in the assay on SN12C it was > 100 µM (inactive); in the assay with HOP-62, > 100 µM (inactive). The GI50 in the assay with Malme-3M is > 100 µM (inactive); in the assay with SF-268, 93.8 µM (inactive); in the assay on NCI-H522, 36.6 µM (inactive); in the assay on KM12, 49 µM (inactive); with HCT-116 it was > 100 µM (inactive); in the assay with T47D it was > 100 µM (inactive). Moreover, the GI50 in the assay with M14 is 74.5 µM (inactive); in the assay with DU-145 it was > 100 µM (inactive); in the assay with U-251 it was > 100 µM (inactive); in the assay on MDA-MB-435, 28.1 µM (inactive); in the assay with BT-549 it was > 100 µM (inactive); with HT-29 it was > 100 µM (inactive). The GI50 in the assay with NCI-H226 and in the assay with COLO 205 was > 100 µM (inactive) throughout.
With `CC(C)(Cl)C(Cl)CC/C(CBr)=C(\Cl)CCl` (stereo not given), the GI50 was 12.7 µM (inactive) in the assay with NCI-H460; 1.89 µM (inactive) in the assay with RPMI-8226; 1.96 µM (inactive) with SW-620; 14.7 µM (inactive) in the assay on OVCAR-5; 3.52 µM (inactive) with SN12C; 11.8 µM (inactive) with HOP-62. For the same molecule, the GI50 was 6.85 µM (inactive) in the assay on Malme-3M; 7.8 µM (inactive) in the assay with SF-268; 0.658 µM (active) in the assay with NCI-H522; 7.01 µM (inactive) in the assay on KM12; 3.93 µM (inactive) with HCT-116; 1.82 µM (inactive) in the assay on T47D. Moreover, the GI50 is 1.81 µM (inactive) in the assay on M14; 13.4 µM (inactive) with DU-145; 4.24 µM (inactive) in the assay with U-251; 3.36 µM (inactive) with MDA-MB-435; 1.84 µM (inactive) in the assay on BT-549; 2.82 µM (inactive) in the assay with HT-29. For the same molecule, the values for the GI50 with NCI-H226 and in the assay on COLO 205 were 4.69 µM (inactive) and 4.89 µM (inactive), respectively.
As to `O=C(O)C1CCCN1Cc1cc2ccccc2c2ccccc12` (stereo not given), the GI50 with NCI-H460, in the assay on RPMI-8226, with SW-620, with OVCAR-5, in the assay on SN12C and in the assay with HOP-62 was > 100 µM (inactive) throughout. For the same molecule, the GI50 with Malme-3M, in the assay with SF-268, with NCI-H522, in the assay on KM12, with HCT-116 and with T47D was > 100 µM (inactive) in each case. Also, the GI50 in the assay with M14, in the assay with DU-145, with U-251, with MDA-MB-435, with BT-549 and in the assay on HT-29 was > 100 µM (inactive) each time. Also, the GI50 in the assay on NCI-H226 and in the assay with COLO 205 was > 100 µM (inactive) each time.
Take `CC(=O)CC(=O)Nn1c(-c2cccs2)nc2ccc(I)cc2c1=O`: the GI50 in the assay on NCI-H460 is > 56.1 µM (inactive); in the assay with RPMI-8226, > 57.9 µM (inactive); in the assay with SW-620, > 52.7 µM (inactive); in the assay on OVCAR-5 it was > 55.1 µM (inactive); in the assay with SN12C, > 49.8 µM (inactive); with HOP-62 it was > 66.4 µM (inactive). Besides, the GI50 is > 52.6 µM (inactive) in the assay with Malme-3M; > 47.3 µM (inactive) in the assay with SF-268; > 49.5 µM (inactive) in the assay with NCI-H522; > 54.7 µM (inactive) in the assay with KM12; > 60.1 µM (inactive) in the assay with HCT-116; > 62.1 µM (inactive) with T47D. In addition, the GI50 with M14 was > 66.8 µM (inactive); in the assay on DU-145, > 38.1 µM (inactive); in the assay on U-251, > 56 µM (inactive); with MDA-MB-435, > 60.7 µM (inactive); in the assay on BT-549, > 35.9 µM (inactive); in the assay on HT-29, > 100 µM (inactive). For the same molecule, the GI50 in the assay on NCI-H226 was > 42.3 µM (inactive); with COLO 205, > 51.4 µM (inactive).

(Values after ChEMBL document CHEMBL1201862, “PubChem BioAssay data set” (2004).)
